pIC50: −log10 of the molar value.

The target in this assay is activated ERK2 (Homo sapiens (Human), UniProt P28482). The assay is described as follows: Activated ERK2 kinase assay (AlphaScreen, ERKtide peptide phosphorylation). Particulars: […] ERK2, 200 nM ERKtide peptide, 35 μM ATP, 30 min preincubation; read-out: ERK2 IC50. It is filed as biochemical. For orientation: Bead proximity is the source of the signal in Alpha formats.
activated ERK2, sequence (P28482 whole entry): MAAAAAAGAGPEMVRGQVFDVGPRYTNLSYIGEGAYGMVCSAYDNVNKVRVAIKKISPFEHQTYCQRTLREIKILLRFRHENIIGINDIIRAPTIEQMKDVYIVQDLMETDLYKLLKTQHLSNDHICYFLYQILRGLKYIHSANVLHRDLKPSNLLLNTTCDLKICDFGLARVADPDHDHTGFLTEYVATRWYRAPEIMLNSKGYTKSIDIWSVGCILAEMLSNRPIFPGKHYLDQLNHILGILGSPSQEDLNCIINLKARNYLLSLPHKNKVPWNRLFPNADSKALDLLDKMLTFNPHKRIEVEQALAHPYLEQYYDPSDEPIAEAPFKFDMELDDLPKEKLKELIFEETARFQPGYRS
The term pIC50 denotes −log10 of the IC50, conventionally taken in molar units. Regarding `CC1(C)c2cnc(NC3CCCCC3)nc2CN1C(=O)N[C@H](CO)c1ccccc1` [compound 86, (S)-2-(cyclohexylamino)-N-(2-hydroxy-1-phenylethyl)-5,5-dimethyl-5H-pyrrolo[3,4-d]pyrimidine-6(7H)-carboxamide], the pIC50 was 7.66.
Under `Cn1cc(-c2cccc(CNC(=O)N3Cc4nc(NC5CCOCC5)ncc4C3(C)C)c2)cn1` [compound 87, 5,5-dimethyl-N-(3-(1-methyl-1H-pyrazol-4-yl)benzyl)-2-((tetrahydro-2H-pyran-4-yl)amino)-5H-pyrrolo[3,4-d]pyrimidine-6(7H)-carboxamide] stands 7.04; under `CC1(C)c2cnc(NC3CCOCC3)nc2CN1C(=O)NCc1cccc(C(N)=O)c1` [compound 88, N-(3-carbamoylbenzyl)-5,5-dimethyl-2-((tetrahydro-2H-pyran-4-yl)amino)-5H-pyrrolo[3,4-d]pyrimidine-6(7H)-carboxamide], 7.96.
The figure for `CC1(C)c2cnc(NC3CCOCC3)nc2CN1C(=O)NCc1nc(-c2ccc(F)cc2)cs1` [compound 89, N-((4-(4-fluorophenyl)thiazol-2-yl)methyl)-5,5-dimethyl-2-((tetrahydro-2H-pyran-4-yl)amino)-5H-pyrrolo[3,4-d]pyrimidine-6(7H)-carboxamide] is 6.88; for `CC1(CO)c2cnc(NC3CCOCC3)nc2CN1C(=O)NCc1ccccc1` (stereo not shown) [compound 90, N-benzyl-5-(hydroxymethyl)-5-methyl-2-((tetrahydro-2H-pyran-4-yl)amino)-5H-pyrrolo[3,4-d]pyrimidine-6(7H)-carboxamide] it is 5.40; for `C[C@@H](NC(=O)N1Cc2nc(NC3CCOCC3)ncc2C1(C)CO)c1ccccc1` (stereo partly drawn) [compound 91, 5-(hydroxymethyl)-5-methyl-N-((R)-1-phenylethyl)-2-((tetrahydro-2H-pyran-4-yl)amino)-5H-pyrrolo[3,4-d]pyrimidine-6(7H)-carboxamide] it is 6.18.
In the case of `C[C@@H](NC(=O)N1Cc2nc(NC3CCOCC3)ncc2C1(C)CO)c1ccccc1` (stereo partly drawn) [compound 92, 5-(hydroxymethyl)-5-methyl-N-((R)-1-phenylethyl)-2-((tetrahydro-2H-pyran-4-yl)amino)-5H-pyrrolo[3,4-d]pyrimidine-6(7H)-carboxamide], the pIC50 was 5.82.
As to `O=C(NCCc1ccccc1)N1Cc2nc(NC3CCOCC3)ncc2C12CCC2` [compound 96, N-phenethyl-2′-((tetrahydro-2H-pyran-4-yl)amino)spiro[cyclobutane-1,5′-pyrrolo[3,4-d]pyrimidine]-6′(7′H)-carboxamide], the negative-log IC50 (pIC50) is 7.05.
The figure for `O=C(Nc1cnn(Cc2ccccc2F)c1)N1Cc2nc(NC3CCOCC3)ncc2C12CCC2` [compound 99, N-(1-(2-fluorobenzyl)-1H-pyrazol-4-yl)-2′-((tetrahydro-2H-pyran-4-yl)amino)spiro[cyclobutane-1,5′-pyrrolo[3,4-d]pyrimidine]-6′(7′H)-carboxamide] is 7.92; for `CNC(=O)c1cccc(CNC(=O)N2Cc3nc(NC4CCOCC4)ncc3C2(C)C)c1` [compound 100, 5,5-dimethyl-N-(3-(methylcarbamoyl)benzyl)-2-((tetrahydro-2H-pyran-4-yl)amino)-5H-pyrrolo[3,4-d]pyrimidine-6(7H)-carboxamide] it is 7.35.
As to `CN(C)C(=O)c1cccc(CNC(=O)N2Cc3nc(NC4CCOCC4)ncc3C2(C)C)c1` [compound 101, N-(3-(dimethylcarbamoyl)benzyl)-5,5-dimethyl-2-((tetrahydro-2H-pyran-4-yl)amino)-5H-pyrrolo[3,4-d]pyrimidine-6(7H)-carboxamide], the negative-log IC50 (pIC50) was 6.31.
Under `CNC(=O)C1CC(NC(=O)N2Cc3nc(NC4CCOCC4)ncc3C2(C)C)CN(Cc2ccccc2F)C1` (stereo not shown) [compound 102, N-(1-(2-fluorobenzyl)-5-(methylcarbamoyl)piperidin-3-yl)-5,5-dimethyl-2-((tetrahydro-2H-pyran-4-yl)amino)-5H-pyrrolo[3,4-d]pyrimidine-6(7H)-carboxamide] stands 5.64; under `CNC(=O)C1CC(NC(=O)N2Cc3nc(NC4CCOCC4)ncc3C2(C)C)CN(Cc2cccc(Cl)c2)C1` (stereo not shown) [compound 103, N-(1-(3-chlorobenzyl)-5-(methylcarbamoyl)piperidin-3-yl)-5,5-dimethyl-2-((tetrahydro-2H-pyran-4-yl)amino)-5H-pyrrolo[3,4-d]pyrimidine-6(7H)-carboxamide], 5.04.
Under `CC1(C)c2cnc(NC3CCOCC3)nc2CN1C(=O)N[C@@H]1CCN(Cc2cccc(Cl)c2)C1` [compound 104] stands 7.43.
The figure for `CC1(C)c2cnc(NC3CCOCC3)nc2CN1C(=O)Nc1cnn(Cc2ccccc2F)c1` [compound 105, N-(1-(2-fluorobenzyl)-1H-pyrazol-4-yl)-5,5-dimethyl-2-((tetrahydro-2H-pyran-4-yl)amino)-5H-pyrrolo[3,4-d]pyrimidine-6(7H)-carboxamide] is 7.41; for `CC1(C)c2cnc(NC3CCOCC3)nc2CN1C(=O)NCc1cc(F)cc(S(C)(=O)=O)c1` [compound 107, N-(3-fluoro-5-(methylsulfonyl)benzyl)-5,5-dimethyl-2-((tetrahydro-2H-pyran-4-yl)amino)-5H-pyrrolo[3,4-d]pyrimidine-6(7H)-carboxamide] it is 7.36; for `CC1(C)c2cnc(NC3CCOCC3)nc2CN1C(=O)NCc1ccc(S(C)(=O)=O)cc1` [compound 108, 5,5-dimethyl-N-(4-(methylsulfonyl)benzyl)-2-((tetrahydro-2H-pyran-4-yl)amino)-5H-pyrrolo[3,4-d]pyrimidine-6(7H)-carboxamide] it is 7.19.
As to `CC1(C)c2cnc(NC3CCOCC3)nc2CN1C(=O)NCc1cc(Cl)cc(S(C)(=O)=O)c1` [compound 109, N-(3-chloro-5-(methylsulfonyl)benzyl)-5,5-dimethyl-2-((tetrahydro-2H-pyran-4-yl)amino)-5H-pyrrolo[3,4-d]pyrimidine-6(7H)-carboxamide], the pIC50 is 8.22.
As for `CCCS(=O)(=O)c1cccc(CNC(=O)N2Cc3nc(NC4CCOCC4)ncc3C2(C)C)c1` [compound 110, 5,5-dimethyl-N-(3-(propylsulfonyl)benzyl)-2-((tetrahydro-2H-pyran-4-yl)amino)-5H-pyrrolo[3,4-d]pyrimidine-6(7H)-carboxamide], the pIC50 is 7.41.
The figure for `CCS(=O)(=O)c1cccc(CNC(=O)N2Cc3nc(NC4CCOCC4)ncc3C2(C)C)c1` [compound 111, N-(3-(ethylsulfonyl)benzyl)-5,5-dimethyl-2-((tetrahydro-2H-pyran-4-yl)amino)-5H-pyrrolo[3,4-d]pyrimidine-6(7H)-carboxamide] is 7.80.
The figure for `CC1(C)c2cnc(NC3CCOCC3)nc2CN1C(=O)NCc1ccccc1S(C)(=O)=O` [compound 112, 5,5-dimethyl-N-(2-(methylsulfonyl)benzyl)-2-((tetrahydro-2H-pyran-4-yl)amino)-5H-pyrrolo[3,4-d]pyrimidine-6(7H)-carboxamide] is 6.09; for `Cc1cccc(S(=O)(=O)N2CCC[C@@H](NC(=O)N3Cc4nc(NC5CCOCC5)ncc4C3(C)C)C2)c1` [compound 113, (R)-5,5-dimethyl-2-((tetrahydro-2H-pyran-4-yl)amino)-N-(1-(m-tolylsulfonyl)piperidin-3-yl)-5H-pyrrolo[3,4-d]pyrimidine-6(7H)-carboxamide] it is 7.35.

The values above are taken from patent US9546173B2 (Novartis AG, priority 2012, dated 2017).
